According to patent publication US8604217B2, “Compound, a process for its preparation, a pharmaceutical composition, use of a compound, a method for modulating or regulating serine/threonine kinases and a serine/threonine kinases modulating agent” (Selvita S.A., priority 2009, dated 2013):
pIC50: −log10 of the molar value. Read-outs that look alike come from different tables or passages of the source.

What was measured:
[1] = system: human prostate adenocarcinoma PC3 cells; experiment: Growth inhibition test (MTS) on PC3 cells; type: cell-based; conditions: Homo sapiens, PC-3, 72 hours, read-out: PC-3 ED50
[2] = system: human breast adenocarcinoma MCF7 cells; experiment: Growth inhibition test (MTS) on MCF7 cells; type: cell-based; conditions: read-out: MCF-7 ED50; for pIC50: Homo sapiens, MCF7, 72 hours; for IC50: 72 hours
Summary of the method: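 MCF7 cells seeded in DMEM with 10% FCS, dosed next day at 0.1–10 micromol/L (diluted from 10 mmol/L DMSO stock) and cultured 72 h at 37° C, 5% CO2. MTS added for 2 h, absorbance read at 490 nm; % viability calculated relative to untreated cells as 100%.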

[3] = system: human myelomonocytic, biphenotypic leukemia MV4-11 cells; experiment: Growth inhibition test (MTS) on MV4-11 cells; type: cell-based; conditions: Homo sapiens, MV4-11, 72 hours, read-out: MV-4-11 ED50
Summary of the method: MV4-

[4] = biological target: PIM-1 (Homo sapiens (Human), UniProt P11309); experiment: Luminometric kinase assay for PIM1 kinase (Kinase-Glo); type: biochemical; conditions: 1 μM ATP, 25 min at RT
PIM-1, sequence (P11309 whole entry): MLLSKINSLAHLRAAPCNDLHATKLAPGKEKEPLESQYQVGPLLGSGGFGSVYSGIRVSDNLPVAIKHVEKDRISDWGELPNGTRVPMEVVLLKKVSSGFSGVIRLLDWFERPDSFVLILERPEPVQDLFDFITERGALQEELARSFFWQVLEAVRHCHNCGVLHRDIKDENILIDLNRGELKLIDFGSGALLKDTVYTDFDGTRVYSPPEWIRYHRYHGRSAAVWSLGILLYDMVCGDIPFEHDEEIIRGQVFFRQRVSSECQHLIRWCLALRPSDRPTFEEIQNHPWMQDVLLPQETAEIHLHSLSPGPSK
Summary of the method: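 Kinase and substrate reacted in 8 mM MOPS/NaOH pH7.0, 0.2 mM EDTA, 2 mM MgCl2 with 1 μM ATP for 25 min at RT, compounds serially diluted from 1 μM. Remaining ATP read by Kinase-Glo luminescence; IC50 from variable-slope sigmoidal fit.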

[5] = system: human hepatoma HepG2 cells; experiment: Growth inhibition test (MTS) on HepG2 cells; type: cell-based; conditions: 72 hours, read-out: HepG2 ED50
Summary of the method: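 HepG2 cells in DMEM with 10% FCS were exposed for 72 h at 37 °C, 5% CO2, to 0.1, 0.5, 1, 2.5, 5 and 10 micromol/L compound. MTS was then added for 2 h and absorbance read at 490 nm. % viability was calculated relative to untreated cells set at 100%.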

[6] = system: human erytroblast leukemia HEL-92.1.7 cells; experiment: Growth inhibition test (MTS) on HEL-92.1.7 cells; type: cell-based; conditions: 72 hours, read-out: HEL92 ED50
Experimental: (§1) Ten thousand cells of human erytroblast leukemia HEL-92.1.7 were inoculated into each well of a 96-well microplate (manufactured by Corning Corp.) using RPMI 1640 medium (culture medium) containing 10% fetal calf serum (FCS). Next day, a dimethyl sulfoxide (DMSO) solution of each test compound prepared in a concentration of 10 mmol/L was further diluted with culture medium to the desired concentrations (0.1, 0.5, 1, 2.5, 5 and 10 micromol/L), and the diluted solution was added to each well. The individual wells were further cultured in 5% carbon dioxide at 37° C. for 72 hours. After completion of the culture, 10 μl MTS (3-(4,5-Dimethyl-2-thiazolyl)-5-(carboxymethoxyphenyl)-2-(4-sulfophenyl)-2H-tetrazolium, inner salt assay (CellTiter96® AQueous One Solution Cell Proliferation Assay, Promega) was added to each well, and culturing was performed in 5% carbon dioxide at 37° C. for 2 hours. Using a microplate spectrophotometer (Synergy 2 multi-mode microplate reader (BioTek)), the absorbance of each well was measured at 490 nm. The value for cells not incorporated with a test compound was designated as 100%. By comparing these values with the absorbance difference obtained at the well in which each test compound was added, the cell viability (% viability) after treatment with the test compound was calculated.

[7] = system: human chronic myelocytic leukemia K562 cells; experiment: Growth inhibition test (MTS) on K562 cells; type: cell-based; conditions: 72 hours, read-out: K562 ED50
Experimental: as §1, with “chronic myelocytic” for “erytroblast”, “K562” for “HEL-92.1.7”, “Iscove's MDM” for “RPMI 1640”

[8] = system: human colorectal adenocarcinoma SW480 cells; experiment: Growth inhibition test (MTS) on SW480 cells; type: cell-based; conditions: read-out: SW480 ED50; for IC50: 72 hours
Experimental: as §1, with “Two” for “Ten”, “colorectal adenocarcinoma SW480” for “erytroblast leukemia HEL-92.1.7”, “Corp.), and” for “Corp.)”, “DMEM/Ham's F121:1” for “RPMI 1640”, “5%” for “10%”

[9] = system: human acute lymphocytic leukemia E6.1 Jurkat cells; experiment: Growth inhibition test (MTS) on E6.1 Jurkat cells; type: cell-based; conditions: 72 hours, read-out: Jurkat ED50
Experimental: as §1, with “Twenty” for “Ten”, “acute lumphocytic” for “erytroblast”, “E6.1 Jurkat” for “HEL-92.1.7”, “[…]” for “1640”

Row | pIC50 [1] | pIC50 [2] | pIC50 [3] | pIC50 [4] | pIC50 [5] | pIC50 [6] | IC50 [7] [µM] | IC50 [2] [µM] | IC50 [8] [µM] | pIC50 [9] | pIC50 ([8]; Homo sapiens, SW480, 72 hours) | Structure (SMILES)
1 | 5.83 | 6.15 | 6.48 | 8.16 | 5.87 | 5.74 | – | – | – | – | – | N[C@H]1CCCC[C@H]1Nc1nc2c(Br)c(Br)c(Br)c(Br)c2[nH]1 (relative stereo) [Compound 304cis, cis N1-(4,5,6,7-tetrabromo-1H-benzo[d]imidazol-2-yl)cyclohexane-1,2-diamine]
2 | 5.41 | – | – | 6.50 | 5.60 | – | 3.72 | 3.65 | 1.08 | – | – | Brc1c(Br)c(Br)c2[nH]c(NCCN3CCCCC3)nc2c1Br [Compound 13, 4,5,6,7-tetrabromo-N-(2-(piperidin-1-yl)ethyl)-1H-benzo[d]imidazol-2-amine]
3 | 5.40 | – | – | 7.24 | 5.67 | – | 3.59 | 7.76 | 1.53 | – | – | Brc1c(Br)c(Br)c2[nH]c(NCCN3CCCC3)nc2c1Br [Compound 14, 4,5,6,7-tetrabromo-N-(2-(pyrrolidin-1-yl)ethyl)-1H-benzo[d]imidazol-2-amine]
4 | – | – | – | 7.38 | 5.20 | – | 7.99 | – | 5.98 | – | – | CN1CCN(c2nc3c(Br)c(Br)c(Br)c(Br)c3[nH]2)CC1 [Compound 21, 4,5,6,7-tetrabromo-2-(4-methylpiperazin-1-yl)-1H-benzo[d]imidazole]
5 | 5.13 | 5.09 | 5.46 | 7.64 | – | 5.08 | – | – | 6.92 | – | – | Brc1c(Br)c(Br)c2[nH]c(NCCCn3ccnc3)nc2c1Br [Compound 65, N-(3-(1H-imidazol-1-yl)propyl)-4,5,6,7-tetrabromo-1H-benzo[d]imidazol-2-amine]
6 | 5.29 | 5.30 | 6.01 | 7.94 | 5.49 | – | – | – | – | 5.29 | – | N[C@H]1CCCC[C@@H]1Nc1nc2c(Br)c(Br)c(Br)c(Br)c2[nH]1 [Compound 304SS, (1S,2S)-N1-(4,5,6,7-tetrabromo-1H-benzo[d]imidazol-2-yl)cyclohexane-1,2-diamine]
7 | 5.08 | 5.03 | 5.22 | 6.54 | 5.91 | – | – | – | – | 5.05 | – | COc1ccc(Nc2nc3c(Br)c(Br)c(Br)c(Br)c3[nH]2)cc1OC [Compound 307, 4,5,6,7-tetrabromo-N-(3,4-dimethoxyphenyl)-1H-benzo[d]imidazol-2-amine]
8 | 5.12 | – | 5.49 | 7.79 | 5.18 | 5.50 | – | – | – | – | – | Nc1ccccc1Nc1nc2c(Br)c(Br)c(Br)c(Br)c2[nH]1 [Compound 332, N1-(4,5,6,7-tetrabromo-1H-benzo[d]imidazol-2-yl)benzene-1,2-diamine]
9 | 5.60 | 5.32 | 5.41 | 7.31 | 5.34 | 5.49 | – | – | – | – | – | Nc1cc(F)c(F)cc1Nc1nc2c(Br)c(Br)c(Br)c(Br)c2[nH]1 [Compound 333, N1-(4,5,6,7-tetrabromo-1H-benzo[d]imidazol-2-yl)-4,5-difluorobenzene-1,2-diamine]
10 | 5.07 | 5.51 | 5.35 | 6.97 | 5.58 | 5.16 | – | – | – | – | – | NCc1cccc(CNc2nc3c(Br)c(Br)c(Br)c(Br)c3[nH]2)c1 [Compound 354, N-(3-(aminomethyl)benzyl)-4,5,6,7-tetrabromo-1H-benzo[d]imidazol-2-amine]
11 | 5.62 | 5.60 | 5.78 | 7.34 | 5.88 | 5.40 | – | – | – | – | – | CNCCCN(Cc1ccccc1)c1nc2c(Br)c(Br)c(Br)c(Br)c2[nH]1 [Compound 372, N-benzyl-4,5,6,7-tetrabromo-N-(3-(methylamino)propyl)-1H-benzo[d]imidazol-2-amine]
12 | 5.18 | – | 5.29 | – | 5.03 | 5.10 | – | – | – | – | – | CCOC(=O)N1CCN(c2nc3c(Br)c(Br)c(Br)c(Br)c3[nH]2)CC1 [Compound 376, ethyl 4-(4,5,6,7-tetrabromo-1H-benzo[d]imidazol-2-yl)piperazine-1-carboxylate]
13 | 5.22 | – | 5.23 | – | 5.01 | 5.01 | – | – | – | – | – | CCOC(=O)N1CCN(c2nc3c(Br)c(Br)c(Br)c(Br)c3n2C(=O)OCC)CC1 [Compound 377, ethyl 2-(4-(ethoxycarbonyl)piperazin-1-yl)-4,5,6,7-tetrabromo-1H-benzo[d]imidazole-1-carboxylate]
14 | 5.16 | 5.24 | 5.34 | 7.34 | 5.42 | 5.66 | – | – | – | – | – | CN1CCN(C2CCN(c3nc4c(Br)c(Br)c(Br)c(Br)c4[nH]3)CC2)CC1 [Compound 385, 4,5,6,7-tetrabromo-2-(4-(4-methylpiperazin-1-yl)piperidin-1-yl)-1H-benzo[d]imidazole]
15 | 5.05 | 5.08 | 5.52 | – | – | 5.15 | – | – | – | – | 5.36 | Cc1nc2ccccn2c1CN1CCN(c2nc3c(Br)c(Br)c(Br)c(Br)c3[nH]2)CC1 [Compound 414, 4,5,6,7-tetrabromo-2-(4-((2-methyl-1H-imidazo[1,2-a]pyridin-3-yl)methyl)piperazin-1-yl)-1H-benzo[d]imidazole]
